Measurements from the NIST ThermoML archive (doi:10.1021/je101264r).
± gives the expanded uncertainty stated by the source.

Assay: mn = molality of the nth substance listed, in mol/kg
Settings: 298.15 K, 101 kPa, Liquid, rubidium clock sound velocity meter

Nc1ncnc2c1ncn2[C@@H]1O[C@H](CO)[C@@H](O)[C@H]1O [β-adenosine] + O
speed of sound (m1 = 0.01701): 1497.8 ± 0.03 m/s
speed of sound (m1 = 0.01736): 1497.8 ± 0.03 m/s
speed of sound (m1 = 0.01799): 1497.8 ± 0.03 m/s
speed of sound (m1 = 0.01851): 1497.9 ± 0.03 m/s
speed of sound (m1 = 0.01911): 1497.9 ± 0.03 m/s
speed of sound (m1 = 0.0195): 1497.9 ± 0.03 m/s
speed of sound (m1 = 0.02001): 1498 ± 0.03 m/s
speed of sound (m1 = 0.02054): 1498 ± 0.03 m/s
